Tested on: Neisseria gonorrhoeae
Assay: EC50 determination: plate-based broth growth assay (absorbance at 600 nm) of Neisseria gonorrhoeae
Assay type: cell-based
Conditions: absorbance 600 nm after 20 hours at 37° C./5% CO2, read-out: IC50 (Inhibitory concentration) against Neisseria gonorrhoeae
Experimental: Actively growing Neisseria gonorrhoeae on GC agar (based on; Spence et. al. (2008): Curr. Protoc. Microbiol. 8:4A.1.1-4A.1.26) plates are harvested and transferred to GC broth (based on; Spence et al (2008): Curr. Protoc. Microbiol. 8:4A.1.1-4A.1.26) to generate a liquid stock. This culture is allowed to establish and grow to mid-log phase (at 37° C./5% CO2), finally this culture is diluted (˜10^5 cells/ml) to generate a seed inoculum to establish plate-based broth assays. EC50 values were determined by assaying growth (absorbance read at 600 nm, after 20 hours at 37° C./5% CO2) of Neisseria gonorrhoeae across a 10-point dilution series of the test compound. The EC50 value is determined from transformed data to identify the concentration of compound giving a 50% response relative to control samples (no compound).

Structure (SMILES) | IC50 [nM]
O=C(NC1CC1)c1csc(Nc2nc3cc(C(F)(F)F)ccc3o2)n1 [Example 1, N-Cyclopropyl-2-((5-(trifluoromethyl)benzo[d]oxazol-2-yl)amino)thiazole-4-carboxamide] | ≤ 1000
CNC(=O)c1csc(Nc2nc3cc(C(F)(F)F)ccc3o2)n1 [Example 2, N-Methyl-2-((5-(trifluoromethyl)benzo[d]oxazol-2-yl)amino)thiazole-4-carboxamide] | ≤ 1000
CC(C)NC(=O)c1csc(Nc2nc3cc(C(F)(F)F)ccc3o2)n1 [Example 4, N-Isopropyl-2-((5-(trifluoromethyl)benzo[d]oxazol-2-yl)amino)thiazole-4-carboxamide] | ≤ 1000
Cc1csc(Nc2nc3cc(C(F)(F)F)ccc3o2)n1 [Example 7, N-(4-Methylthiazol-2-yl)-5-(trifluoromethyl)benzo[d]oxazol-2-amine] | ≤ 1000
O=C(NC1CC1)c1csc(Nc2nc3ccccc3o2)n1 [Example 15, 2-(Benzo[d]oxazol-2-ylamino)-N-cyclopropylthiazole-4-carboxamide] | ≤ 1000
O=C(NC1CC1)c1csc(Nc2nc3cc(Cl)ccc3o2)n1 [Example 17, 2-((5-Chlorobenzo[d]oxazol-2-yl)amino)-N-cyclopropylthiazole-4-carboxamide] | ≤ 1000
O=C(NC1CC1)c1csc(Nc2nc3cc(F)ccc3o2)n1 [Example 18, N-Cyclopropyl-2-((5-fluorobenzo[d]oxazol-2-yl)amino)thiazole-4-carboxamide] | ≤ 1000
O=C(NC1CC1)c1csc(Nc2nc3ccc(Cl)cc3o2)n1 [Example 20, 2-((6-Chlorobenzo[d]oxazol-2-yl)amino)-N-cyclopropylthiazole-4-carboxamide] | ≤ 100
Cc1nnc(Nc2nc3cc(C(F)(F)F)ccc3o2)o1 [Example 22, N-(5-Methyl-1,3,4-oxadiazol-2-yl)-5-(trifluoromethyl)benzo[d]oxazol-2-amine] | ≤ 1000
Cc1sc(Nc2nc3cc(C(F)(F)F)ccc3o2)nc1C(=O)NC1CC1 [Example 25, N-Cyclopropyl-5-methyl-2-((5-(trifluoromethyl)benzo[d]oxazol-2-yl)amino)thiazole-4-carboxamide] | ≤ 1000
FC(F)(F)c1ccc2nc(Nc3ncc(N4CCCCC4)s3)oc2c1 [Example 28, N-(5-(Piperidin-1-yl)thiazol-2-yl)-6-(trifluoromethyl)benzo[d]oxazol-2-amine] | ≤ 1000
NC(=O)c1csc(Nc2nc3ccc(Cl)cc3o2)n1 [Example 33, 2-((6-Chlorobenzo[d]oxazol-2-yl)amino)thiazole-4-carboxamide] | ≤ 1000
CN1CCN(c2cnc(Nc3nc4ccc(C(F)(F)F)cc4o3)s2)CC1 [Example 35, N-(5-(4-Methylpiperazin-1-yl)thiazol-2-yl)-6-(trifluoromethyl)benzo[d]oxazol-2-amine] | ≤ 1000
NC(=O)c1csc(Nc2nc3cccc(Cl)c3o2)n1 [Example 36, 2-((7-Chlorobenzo[d]oxazol-2-yl)amino)thiazole-4-carboxamide] | ≤ 1000
O=C(NC1CC1)c1cnc(Nc2nc3cc(C(F)(F)F)ccc3o2)s1 [Example 37, N-Cyclopropyl-2-((5-(trifluoromethyl)benzo[d]oxazol-2-yl)amino)thiazole-5-carboxamide] | ≤ 10000
Cn1ccc(Nc2nc3cc(C(F)(F)F)ccc3o2)n1 [Example 38, N-(1-Methyl-1H-pyrazol-3-yl)-5-(trifluoromethyl)benzo[d]oxazol-2-amine] | ≤ 10000
Cc1nnc(Nc2nc3cccc(Cl)c3o2)o1 [Example 39, 7-Chloro-N-(5-methyl-1,3,4-oxadiazol-2-yl)benzo[d]oxazol-2-amine] | ≤ 1000
Cn1cnnc1Nc1nc2cc(C(F)(F)F)ccc2o1 [Example 41, N-(4-methyl-4H-1,2,4-triazol-3-yl)-5-(trifluoromethyl)benzo[d]oxazol-2-amine] | ≤ 1000
FC(F)(F)c1cc2nc(Nc3nnc[nH]3)oc2cc1Cl [Example 43, 6-Chloro-N-(4H-1,2,4-triazol-3-yl)-5-(trifluoromethyl)benzo[d]oxazol-2-amine] | ≤ 100
COC(=O)c1ccc2oc(Nc3nnc(C)o3)nc2c1 [Example 44, Methyl 2-((5-methyl-1,3,4-oxadiazol-2-yl)amino)benzo[d]oxazole-5-carboxylate] | ≤ 100

Further lines, results first:

IC50 [nM] | Structure (SMILES)
≤ 1000 | CCNC(=O)c1csc(Nc2nc3cc(C(F)(F)F)ccc3o2)n1 [Example 3, N-Ethyl-2-((5-(trifluoromethyl)benzo[d]oxazol-2-yl)amino)thiazole-4-carboxamide]
≤ 1000 | O=C(Nc1ccccc1)c1csc(Nc2nc3cc(C(F)(F)F)ccc3o2)n1 [Example 5, N-Phenyl-2-((5-(trifluoromethyl)benzo[d]oxazol-2-yl)amino)thiazole-4-carboxamide]
≤ 1000 | FC(F)(F)c1ccc2oc(Nc3nccs3)nc2c1 [Example 6, N-(Thiazol-2-yl)-5-(trifluoromethyl)benzo[d]oxazol-2-amine]
≤ 1000 | CCOC(=O)c1csc(Nc2nc3cc(C(F)(F)F)ccc3o2)n1 [Example 8, Ethyl 2-((5-(trifluoromethyl)benzo[d]oxazol-2-yl)amino)thiazole-4-carboxylate]
≤ 1000 | O=C(Nc1cccc(F)c1)c1csc(Nc2nc3cc(C(F)(F)F)ccc3o2)n1 [Example 9, N-(3-Fluorophenyl)-2-((5-(trifluoromethyl)benzo[d]oxazol-2-yl)amino)thiazole-4-carboxamide]
≤ 1000 | O=C(Nc1cccc(Cl)c1)c1csc(Nc2nc3cc(C(F)(F)F)ccc3o2)n1 [Example 10, N-(3-Chlorophenyl)-2-((5-(trifluoromethyl)benzo[d]oxazol-2-yl)amino)thiazole-4-carboxamide]
≤ 1000 | FC(F)(F)c1ccc2oc(Nc3ccon3)nc2c1 [Example 11, N-(Isoxazol-3-yl)-5-(trifluoromethyl)benzo[d]oxazol-2-amine]
≤ 10000 | Cn1cc(Nc2nc3cc(C(F)(F)F)ccc3o2)nn1 [Example 12, N-(1-Methyl-1H-1,2,3-triazol-4-yl)-5-(trifluoromethyl)benzo[d]oxazol-2-amine]
≤ 10000 | CC(C)(C)c1csc(Nc2nc3cc(C(F)(F)F)ccc3o2)n1 [Example 13, N-(4-(tert-butyl)thiazol-2-yl)-5-(trifluoromethyl)benzo[d]oxazol-2-amine]
≤ 1000 | FC(F)(F)c1ccc2oc(Nc3nncs3)nc2c1 [Example 14, N-(1,3,4-Thiadiazol-2-yl)-5-(trifluoromethyl)benzo[d]oxazol-2-amine]
≤ 1000 | Cc1ccc2oc(Nc3nc(C(=O)NC4CC4)cs3)nc2c1 [Example 16, N-Cyclopropyl-2-((5-methylbenzo[d]oxazol-2-yl)amino)thiazole-4-carboxamide]
≤ 1000 | O=C(NC1CC1)c1csc(Nc2nc3ccc(F)cc3o2)n1 [Example 19, N-Cyclopropyl-2-((6-fluorobenzo[d]oxazol-2-yl)amino)thiazole-4-carboxamide]
≤ 1000 | NC(=O)c1csc(Nc2nc3cc(C(F)(F)F)ccc3o2)n1 [Example 21, 2-((5-(Trifluoromethyl)benzo[d]oxazol-2-yl)amino)thiazole-4-carboxamide]
≤ 1000 | FC(F)(F)c1ccc2oc(Nc3ncns3)nc2c1 [Example 23, N-(1,2,4-Thiadiazol-5-yl)-5-(trifluoromethyl)benzo[d]oxazol-2-amine]
≤ 1000 | O=C(NC1CC1)c1coc(Nc2nc3cc(C(F)(F)F)ccc3o2)n1 [Example 24, N-Cyclopropyl-2-((5-(trifluoromethyl)benzo[d]oxazol-2-yl)amino)oxazole-4-carboxamide]
≤ 100 | O=C(NC1CC1)c1csc(Nc2nc3ccc(C(F)(F)F)cc3o2)n1 [Example 26, N-Cyclopropyl-2-((6-(trifluoromethyl)benzo[d]oxazol-2-yl)amino)thiazole-4-carboxamide]
≤ 1000 | FC(F)(F)c1ccc2nc(Nc3ncc(N4CCOCC4)s3)oc2c1 [Example 27, N-(5-Morpholinothiazol-2-yl)-6-(trifluoromethyl)benzo[d]oxazol-2-amine]
≤ 100000 | O=C(NC1CC1)c1nnc(Nc2nc3ccc(C(F)(F)F)cc3o2)o1 [Example 30, N-Cyclopropyl-5-((6-(trifluoromethyl)benzo[d]oxazol-2-yl)amino)-1,3,4-oxadiazol-2-carboxamide]
≤ 1000 | Cc1noc(Nc2nc3cc(C(F)(F)F)ccc3o2)n1 [Example 31, N-(3-Methyl-1,2,4-oxadiazol-5-yl)-5-(trifluoromethyl)benzo[d]oxazol-2-amine]
≤ 1000 | CN1CCN(c2cnc(Nc3nc4cc(C(F)(F)F)ccc4o3)s2)CC1 [Example 32, N-(5-(4-Methylpiperazin-1-yl)thiazol-2-yl)-5-(trifluoromethyl)benzo[d]oxazol-2-amine]
≤ 1000 | NC(=O)c1csc(Nc2nc3cc(C(F)(F)F)c(Cl)cc3o2)n1 [Example 34, 2-((6-Chloro-5-(trifluoromethyl)benzo[d]oxazol-2-yl)amino)thiazole-4-carboxamide]
≤ 100 | Cc1nnc(Nc2nc3c(Cl)cc(Cl)cc3o2)o1 [Example 40, 4,6-Dichloro-N-(5-methyl-1,3,4-oxadiazol-2-yl)benzo[d]oxazol-2-amine]
≤ 100 | Cc1cc(Nc2nc3cc(C(F)(F)F)c(Cl)cc3o2)no1 [Example 42, 6-Chloro-N-(5-methylisoxazol-3-yl)-5-(trifluoromethyl)benzo[d]oxazol-2-amine]
≤ 100 | Clc1cc(Cl)c2nc(Nc3nnco3)oc2c1 [Example 45, 4,6-Dichloro-N-(1,3,4-oxadiazol-2-yl)benzo[d]oxazol-2-amine]

Reference: patent publication US20190194179A1, “ANTIBIOTIC COMPOUNDS” (DISCUVA LTD., priority 2016, published 2019)
